Each structure is given as a SMILES string.

What is called melting point is the temperature of the solid-liquid transition.

In the case of `Fc1ccc(-c2n[nH]c3ccccc23)cc1` [Example 4, 3-(4-Fluorophenyl)-1H-indazole], the melting point is 126 °C.

For the compound `COc1ccc(-c2n[nH]c3ccc([N+](=O)[O-])cc23)cc1OC` [Example 23, 3-(3,4-Dimethoxyphenyl)-5-nitro-1H-indazole], the melting point was 172 to 173 °C.

Turning to `O=[N+]([O-])c1ccc2[nH]nc(-c3ccccc3)c2c1` [Example 7, 5-Nitro-3-phenyl-1H-indazole], the melting point lay within 185 to 186 °C.

Consider `O=[N+]([O-])c1cccc(-c2n[nH]c3ccc([N+](=O)[O-])cc23)c1`, for which the melting point fell in the range of 249 to 251 °C.

For `FC(F)(F)c1ccc2[nH]nc(-c3ccccc3)c2c1` [Example 5, 3-Phenyl-5-trifluoromethyl-1H-indazole], the melting point came to 152 °C.

`COc1ccccc1-c1n[nH]c2ccccc12` [Example 3, 3-(2-Methoxyphenyl)-1H-indazole] returned a melting point of 99 °C.

Compound `Fc1ccc2[nH]nc(-c3ccccc3)c2c1` [Example 6, 5-Fluoro-3-phenyl-1H-indazole] yielded a melting point of 124 to 125 °C.

With `COc1ccc(-c2n[nH]c3ccc(N)cc23)cc1OC.O=C(O)C(F)(F)F`, the melting point was 150 °C (dec.).

Compound `Nc1ccc2[nH]nc(-c3ccccc3)c2c1` [Example 8, 5-Amino-3-phenyl-1H-indazole] displayed a melting point of 104 °C.

As for `COc1ccc(-c2n[nH]c3ccc([N+](=O)[O-])cc23)cc1` [Example 21, 3-(4-Methoxyphenyl)-5-nitro-1H-indazole], the melting point stood at 153 °C.

For `COc1ccc(-c2n[nH]c3ccc(N)cc23)cc1.Cl` [Example 34, 5-Amino-3-(4-methoxyphenyl)-1H-indazole Hydrochloride], the melting point is 240 °C (dec.).
